Paper PMC4503722, “Novel Phenotypic Outcomes Identified for a Public Collection of Approved Drugs from a Publicly Accessible Panel of Assays” (PLoS ONE, 2015)
Where two headings read alike, the source gives them in different places.

Assays:
INS-1E cells [1] = test: cells; type: cell-based, rat; conditions: for 5mMGluc_INS1E SecretionMod IC50/EC50: assay number 8; for EC50: Rattus norvegicus, INS-1E
INS-1E cells [2] = type: cell-based, rat; conditions: 0.1 mM glucose; for 0.1mMGluc_INS1E SecretionMod Act IC50/EC50: assay number 9; for insulin secretion at low glucose (in words): INS-1E
[3] = test system: tonic K+ channel activity in INS-1E cells; test: cells; type: cell-based, rat; conditions: 0.1 mM glucose; for 0.1mMGluc_INS1E FluxOR IC50/EC50: assay number 10
[4] = test system: endothelial tube formation in co-cultures of ECFCs and ADSCs treated with VEGF; test: cells; type: cell-based, human; conditions: for IC50: Homo sapiens, Table 2, primary assay tube area, 20 = no response in concentration-response, 20.1 = inactive in single concentration testing, read-out: Anti-Angio IC50
[5] = test system: nuclear β-catenin in C2C12 cells; test: cells; type: cell-based; conditions: for EC50: Mus musculus, C2C12, Table 2, C2C12, 20 / 20.1 coded, read-out: Wnt pot. EC50; for WntCondMedia_bCatenin C2C12 IC50/EC50: assay number 5, concentration response
NCI-H716 cells = test: cells; type: cell-based, Human; conditions: Homo sapiens, NCI-H716; read-out: GLP1 sec. EC50
DLD-1 = test: cells; type: cell-based; conditions: Homo sapiens, DLD-1, 72 h, Table 2; 72 h, Cell TiterGlo, non-adherent; 20 coded; read-out: DLD-1 viab. IC50
SW480 = test: cells; type: cell-based; conditions: Homo sapiens
HCT116 = test: cells; type: cell-based; conditions: Homo sapiens, HCT-116, 72 h, read-out: HCT-116 viab. IC50, Table 2; basal; 72 h, Cell TiterGlo, non-adherent; 20 coded
[6] = test system: HCT116 cells treated with a GSK3β inhibitor; test: cells; type: cell-based; conditions: Homo sapiens, HCT-116, read-out: HCT-116 (GSK3β) viab. IC50; Table 2; GSK3β inhibitor LY2090314 20 nM; 72 h, Cell TiterGlo; 20 coded
[7] = test system: alkaline phosphatase (ALP) activity in C2C12 cells; type: cell-based; conditions: assay number 6; concentration response
HeLa cells = test: cells; type: cell-based; conditions: for Hela CellCycMod PI 2N IC50/EC50: assay number 14; for Hela CellCycMod PI 4N IC50/EC50: assay number 16; for Hela CellCycMod PI MI IC50/EC50: assay number 17; for Hela CellCycMod PI Cell Number IC50/EC50: assay number 18
hp70S6K1 (RPS6KB1) = target: T1, hp70S6K1 (RPS6KB1) (Homo sapiens, UniProt P23443); test: Cerep LANCE kinase assay hp70S6K1 (S1 assay 31); type: biochemical; conditions: assay number 31
T1 construct: purchased Cerep (LANCE kinase assay platform, contract assay)
T1 sequence (P23443 whole entry): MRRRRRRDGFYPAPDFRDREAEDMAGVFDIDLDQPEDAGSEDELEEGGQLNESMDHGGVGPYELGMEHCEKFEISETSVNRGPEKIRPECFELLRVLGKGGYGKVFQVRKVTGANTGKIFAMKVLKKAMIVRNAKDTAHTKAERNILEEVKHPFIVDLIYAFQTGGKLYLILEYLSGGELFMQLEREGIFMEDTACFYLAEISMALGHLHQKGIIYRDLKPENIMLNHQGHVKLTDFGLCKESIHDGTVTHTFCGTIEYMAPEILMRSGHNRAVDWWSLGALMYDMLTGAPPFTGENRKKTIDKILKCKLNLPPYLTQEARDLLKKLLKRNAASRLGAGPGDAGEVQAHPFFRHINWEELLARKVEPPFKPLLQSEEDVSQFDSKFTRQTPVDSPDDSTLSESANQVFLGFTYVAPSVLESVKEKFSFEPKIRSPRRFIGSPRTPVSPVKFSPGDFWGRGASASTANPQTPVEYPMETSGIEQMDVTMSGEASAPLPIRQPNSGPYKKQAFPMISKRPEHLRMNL

hKDR = target: T2, hKDR (Homo sapiens, UniProt P35968); test: Cerep LANCE kinase assay hKDR (S1 assay 32); type: biochemical; conditions: assay number 32
T2 construct: purchased Cerep (LANCE kinase assay platform, contract assay)
T2 sequence (P35968 20-1356): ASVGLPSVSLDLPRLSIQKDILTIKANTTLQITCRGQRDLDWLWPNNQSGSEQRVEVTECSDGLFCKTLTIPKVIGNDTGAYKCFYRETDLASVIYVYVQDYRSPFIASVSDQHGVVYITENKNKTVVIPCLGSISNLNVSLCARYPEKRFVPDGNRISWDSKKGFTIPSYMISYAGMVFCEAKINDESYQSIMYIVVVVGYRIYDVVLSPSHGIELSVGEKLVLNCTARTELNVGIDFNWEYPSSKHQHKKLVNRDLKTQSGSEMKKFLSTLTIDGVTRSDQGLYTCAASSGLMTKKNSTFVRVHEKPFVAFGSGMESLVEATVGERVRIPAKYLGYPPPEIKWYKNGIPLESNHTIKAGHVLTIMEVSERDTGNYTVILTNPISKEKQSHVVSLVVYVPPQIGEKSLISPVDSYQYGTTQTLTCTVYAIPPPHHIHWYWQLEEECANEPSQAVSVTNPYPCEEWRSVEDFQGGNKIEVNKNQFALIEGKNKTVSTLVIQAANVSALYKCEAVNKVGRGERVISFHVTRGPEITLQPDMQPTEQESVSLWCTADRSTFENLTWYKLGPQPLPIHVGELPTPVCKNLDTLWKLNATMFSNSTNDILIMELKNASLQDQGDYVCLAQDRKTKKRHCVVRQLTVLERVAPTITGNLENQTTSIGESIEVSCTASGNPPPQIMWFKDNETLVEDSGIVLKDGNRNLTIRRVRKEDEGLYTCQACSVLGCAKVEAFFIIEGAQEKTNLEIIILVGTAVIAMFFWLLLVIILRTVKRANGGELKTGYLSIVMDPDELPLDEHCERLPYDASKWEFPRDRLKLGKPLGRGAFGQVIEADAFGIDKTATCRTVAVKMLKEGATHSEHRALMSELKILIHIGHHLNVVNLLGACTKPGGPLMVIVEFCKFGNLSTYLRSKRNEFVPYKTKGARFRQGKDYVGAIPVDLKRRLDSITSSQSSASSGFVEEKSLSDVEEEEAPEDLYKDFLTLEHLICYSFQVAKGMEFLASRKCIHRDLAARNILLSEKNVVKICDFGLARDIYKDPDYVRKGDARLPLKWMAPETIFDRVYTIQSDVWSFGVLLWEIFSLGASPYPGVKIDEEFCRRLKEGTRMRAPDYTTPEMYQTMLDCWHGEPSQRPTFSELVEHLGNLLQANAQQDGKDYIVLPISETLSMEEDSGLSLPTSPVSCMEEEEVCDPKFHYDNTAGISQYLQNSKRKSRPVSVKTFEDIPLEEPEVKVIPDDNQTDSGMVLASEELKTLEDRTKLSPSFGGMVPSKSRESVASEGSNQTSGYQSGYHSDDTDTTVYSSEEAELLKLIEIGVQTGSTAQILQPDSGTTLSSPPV

hJAK2 = target: T3, hJAK2 (Homo sapiens, UniProt O60674); test: Cerep LANCE kinase assay hJAK2 (S1 assay 33); type: biochemical; conditions: assay number 33
T3 construct: purchased Cerep (LANCE kinase assay platform, contract assay)
T3 sequence (O60674 whole entry): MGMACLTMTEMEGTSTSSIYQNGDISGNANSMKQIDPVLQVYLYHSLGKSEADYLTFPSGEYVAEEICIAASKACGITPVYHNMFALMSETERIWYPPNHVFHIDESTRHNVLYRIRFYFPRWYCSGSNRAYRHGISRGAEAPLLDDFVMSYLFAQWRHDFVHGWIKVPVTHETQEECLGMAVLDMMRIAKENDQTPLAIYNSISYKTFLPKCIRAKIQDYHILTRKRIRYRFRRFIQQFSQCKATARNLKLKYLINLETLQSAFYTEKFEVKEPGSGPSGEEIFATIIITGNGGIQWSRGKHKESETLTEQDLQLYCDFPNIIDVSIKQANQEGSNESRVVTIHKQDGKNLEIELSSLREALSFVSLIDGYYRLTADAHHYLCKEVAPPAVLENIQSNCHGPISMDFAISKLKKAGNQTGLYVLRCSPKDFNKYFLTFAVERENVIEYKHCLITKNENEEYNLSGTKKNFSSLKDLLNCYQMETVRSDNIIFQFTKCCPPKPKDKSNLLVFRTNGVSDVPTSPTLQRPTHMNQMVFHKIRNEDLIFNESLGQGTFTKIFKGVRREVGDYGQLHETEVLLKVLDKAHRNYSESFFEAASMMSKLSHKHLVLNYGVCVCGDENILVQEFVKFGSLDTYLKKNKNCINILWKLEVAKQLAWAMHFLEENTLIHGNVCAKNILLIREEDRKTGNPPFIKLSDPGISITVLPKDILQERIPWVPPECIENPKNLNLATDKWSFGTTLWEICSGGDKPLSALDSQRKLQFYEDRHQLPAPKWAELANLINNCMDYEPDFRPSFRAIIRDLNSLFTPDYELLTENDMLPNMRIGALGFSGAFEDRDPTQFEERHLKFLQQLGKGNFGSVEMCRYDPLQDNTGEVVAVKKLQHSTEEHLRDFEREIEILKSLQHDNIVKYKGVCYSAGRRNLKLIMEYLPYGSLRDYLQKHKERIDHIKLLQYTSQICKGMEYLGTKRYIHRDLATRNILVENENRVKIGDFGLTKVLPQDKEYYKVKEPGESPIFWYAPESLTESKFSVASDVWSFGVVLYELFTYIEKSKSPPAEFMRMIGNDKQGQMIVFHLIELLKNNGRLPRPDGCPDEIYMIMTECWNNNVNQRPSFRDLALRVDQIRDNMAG

hGSK3b = target: T4, hGSK3b (Homo sapiens, UniProt P49841); test: Cerep LANCE kinase assay hGSK3b (S1 assay 34); type: biochemical; conditions: assay number 34
T4 construct: purchased Cerep (LANCE kinase assay platform, contract assay)
T4 sequence (P49841 whole entry): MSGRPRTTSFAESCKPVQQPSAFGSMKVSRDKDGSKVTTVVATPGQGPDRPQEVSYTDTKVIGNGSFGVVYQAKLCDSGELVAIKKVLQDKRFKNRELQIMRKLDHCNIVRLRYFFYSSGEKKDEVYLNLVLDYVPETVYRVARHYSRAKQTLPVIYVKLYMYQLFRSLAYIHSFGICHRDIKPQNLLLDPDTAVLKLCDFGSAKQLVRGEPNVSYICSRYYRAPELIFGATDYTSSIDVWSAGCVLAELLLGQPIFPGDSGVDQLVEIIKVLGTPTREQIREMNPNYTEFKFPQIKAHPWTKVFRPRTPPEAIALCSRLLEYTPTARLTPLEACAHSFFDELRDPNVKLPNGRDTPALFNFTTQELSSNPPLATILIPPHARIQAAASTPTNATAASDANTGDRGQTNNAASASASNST

hFLT3 = target: T5, hFLT3 (Homo sapiens, UniProt P36888); test: Cerep LANCE kinase assay hFLT3 (S1 assay 35); type: biochemical; conditions: assay number 35
T5 construct: purchased Cerep (LANCE kinase assay platform, contract assay)
T5 sequence (P36888 27-993): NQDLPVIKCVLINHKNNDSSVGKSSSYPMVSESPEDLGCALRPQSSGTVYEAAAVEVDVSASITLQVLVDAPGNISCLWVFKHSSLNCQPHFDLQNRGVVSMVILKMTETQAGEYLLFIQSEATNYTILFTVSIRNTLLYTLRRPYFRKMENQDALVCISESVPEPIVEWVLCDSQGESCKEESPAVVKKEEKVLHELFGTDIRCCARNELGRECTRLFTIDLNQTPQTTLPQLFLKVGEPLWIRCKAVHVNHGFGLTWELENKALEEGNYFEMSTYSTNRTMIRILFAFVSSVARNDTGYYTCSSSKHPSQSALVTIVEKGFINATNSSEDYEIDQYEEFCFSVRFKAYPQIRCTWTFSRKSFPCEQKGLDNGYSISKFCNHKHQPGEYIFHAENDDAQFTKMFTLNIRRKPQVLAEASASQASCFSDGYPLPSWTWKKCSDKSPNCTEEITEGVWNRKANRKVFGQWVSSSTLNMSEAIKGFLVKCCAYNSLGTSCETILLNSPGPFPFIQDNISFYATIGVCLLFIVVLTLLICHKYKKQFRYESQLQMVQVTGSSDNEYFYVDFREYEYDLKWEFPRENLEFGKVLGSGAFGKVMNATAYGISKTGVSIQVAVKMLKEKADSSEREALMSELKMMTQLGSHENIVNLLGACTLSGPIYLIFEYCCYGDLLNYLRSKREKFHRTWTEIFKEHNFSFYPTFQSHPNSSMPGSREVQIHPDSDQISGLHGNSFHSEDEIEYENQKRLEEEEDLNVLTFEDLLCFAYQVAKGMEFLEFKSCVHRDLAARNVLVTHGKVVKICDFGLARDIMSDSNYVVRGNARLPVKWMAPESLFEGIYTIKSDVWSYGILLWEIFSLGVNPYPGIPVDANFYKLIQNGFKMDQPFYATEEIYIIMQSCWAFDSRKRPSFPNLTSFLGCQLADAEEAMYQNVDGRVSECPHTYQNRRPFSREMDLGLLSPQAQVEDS

[8] = test system: ECFC/ADSC co-culture cell nuclei number
[9] = 5 mM glucose, read-out: insulin secretion EC50
[10] = SW480, 72 h, Table 2, 72 h, Cell TiterGlo, non-adherent, 20 coded, read-out: SW480 viab. IC50
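For 5mMGluc INS1E SecretionMod IC50/EC50 in this document: secreted insulin quantified by homogeneous immunoassay.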
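For IC50/EC50, 5mMGluc INS1E SecretionMod (assay number 8) in this document: secreted insulin quantified by homogeneous immunoassay.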

## CN(C)CCN(Cc1ccc(Cl)cc1)c1ccccn1 [NCGC00016672-04]
INS-1E cells [1]; 5 mM glucose
  5mMGluc_INS1E SecretionMod IC50/EC50: 6.1408 µM
INS-1E cells [2]
  0.1mMGluc_INS1E SecretionMod Act IC50/EC50: 16.7904 µM
[3]
  0.1mMGluc_INS1E FluxOR IC50/EC50: 4.782 µM

## COc1ccc(Cl)cc1C(=O)NCCc1ccc(S(=O)(=O)NC(=O)NC2CCCCC2)cc1 [glibenclamide, reference compound]
[4]
  IC50: > 10 µM
[5]
  EC50: > 10 µM
INS-1E cells [1]; read-out: Ins. sec. EC50
  EC50: 0.002 µM
INS-1E cells [1]; read-out: Insulin Secretion
  EC50: 0.00247 µM
INS-1E cells [1]; [9]
  EC50: 0.0025 µM
INS-1E cells [2]
  insulin secretion at low glucose (in words): stimulated insulin secretion at low glucose concentrations
NCI-H716 cells
  EC50: > 10 µM
DLD-1
  IC50: > 20 µM
SW480; [10]
  IC50: 2.9 µM
SW480; SW480, basal, SW480, read-out: Basal_Viability ATP SW480
  IC50: 2.92 µM
HCT116
  IC50: > 20 µM
[6]
  IC50: > 20 µM

## O=c1[nH]c2ccccc2n1CCCN1CCC(n2c(=O)[nH]c3cc(Cl)ccc32)CC1 [NCGC00014670-17]
INS-1E cells [1]; 5 mM glucose
  IC50/EC50, 5mMGluc_INS1E SecretionMod (assay number 8): 12.4283 µM
INS-1E cells [2]
  IC50/EC50, 0.1mMGluc_INS1E SecretionMod Act (assay number 9): > 33.33 µM
[3]
  IC50/EC50, 0.1mMGluc_INS1E FluxOR (assay number 10): 36.5303 µM

## CSc1ccc2c(c1)C(N1CCN(C)CC1)Cc1ccccc1S2 (stereo not shown) [NCGC00024665-10]
[4]
  VEGF_ADSC\ECFC Angio CD31 TubeArea IC50/EC50: > 10 µM
[5]
  WntCondMedia_bCatenin C2C12 IC50/EC50: > 20 µM
[7]
  WntCondMedia_Alk Phos C2C12 IC50/EC50: > 20 µM
INS-1E cells [1]; 5 mM glucose
  5mMGluc_INS1E SecretionMod IC50/EC50: 2.944 µM
INS-1E cells [2]
  0.1mMGluc_INS1E SecretionMod Act IC50/EC50: > 33.33 µM
HeLa cells
  Hela CellCycMod PI 2N IC50/EC50: > 10 µM
  Hela CellCycMod PI 4N IC50/EC50: > 10 µM
  Hela CellCycMod PI MI IC50/EC50: > 10 µM
  Hela CellCycMod PI Cell Number IC50/EC50: > 10 µM
hp70S6K1 (RPS6KB1)
  hp70S6K1 LANCE IC50/EC50: > 20 µM
hKDR
  hKDR LANCE IC50/EC50: > 20 µM
hJAK2
  hJAK2 LANCE IC50/EC50: > 20 µM
hGSK3b
  hGSK3b LANCE IC50/EC50: > 20 µM
hFLT3
  hFLT3 LANCE IC50/EC50: > 20 µM
[8]
  VEGF_ADSC\ECFC Angio Hoechst NucArea IC50/EC50: > 10 µM

## CCN(CC)CCOCCOC(=O)C1(c2ccccc2)CCCC1 [NCGC00024595-08]
INS-1E cells [1]; 5 mM glucose
  5mMGluc_INS1E SecretionMod IC50/EC50: 7.687 µM
INS-1E cells [2]
  0.1mMGluc_INS1E SecretionMod Act IC50/EC50: > 33.33 µM
[3]
  0.1mMGluc_INS1E FluxOR IC50/EC50: 4.656 µM

## CCOc1cc(CC(=O)N[C@@H](CC(C)C)c2ccccc2N2CCCCC2)ccc1C(=O)O [repaglinide, reference compound]
[4]
  IC50: > 10 µM
[5]
  EC50: > 10 µM
INS-1E cells [1]; read-out: Ins. sec. EC50
  EC50: 0.03 µM
INS-1E cells [1]; [9]
  EC50: 0.027 µM
INS-1E cells [2]
  insulin secretion at low glucose (in words): stimulated insulin secretion at low glucose concentrations
NCI-H716 cells
  EC50: > 10 µM
HeLa cells; Table 2, HeLa, […], 20 / 20.1 coded
  G2/M IC50 / EC50: 20.1
DLD-1
  IC50: > 20 µM
SW480; [10]
  IC50: > 20 µM
HCT116
  IC50: > 20 µM
[6]
  IC50: > 20 µM

## CN1CCCN(C(c2ccccc2)c2ccc(Cl)cc2)CC1 (stereo not shown) [NCGC00018271-07]
INS-1E cells [1]; 5 mM glucose
  5mMGluc_INS1E SecretionMod IC50/EC50: > 3.703 µM
INS-1E cells [2]
  0.1mMGluc_INS1E SecretionMod Act IC50/EC50: > 33.33 µM
[3]
  0.1mMGluc_INS1E FluxOR IC50/EC50: 15.6503 µM

## Nc1ccc2cc3ccc(N)cc3nc2c1 [NCGC00166245-04]
[5]
  WntCondMedia_bCatenin C2C12 IC50/EC50: 5.9868 µM
[7]
  WntCondMedia_Alk Phos C2C12 IC50/EC50: > 20 µM
INS-1E cells [1]; 5 mM glucose
  5mMGluc_INS1E SecretionMod IC50/EC50: 20.6221 µM
INS-1E cells [2]
  0.1mMGluc_INS1E SecretionMod Act IC50/EC50: > 33.33 µM
HeLa cells
  Hela CellCycMod PI 2N IC50/EC50: > 10 µM
  Hela CellCycMod PI 4N IC50/EC50: > 10 µM
  Hela CellCycMod PI MI IC50/EC50: 2.4689 µM
  Hela CellCycMod PI Cell Number IC50/EC50: 1.3426 µM
HeLa cells; assay number 15, S phase
  Hela CellCycMod PI S Phase IC50/EC50: 3.4397 µM
hp70S6K1 (RPS6KB1)
  hp70S6K1 LANCE IC50/EC50: > 20 µM
hKDR
  hKDR LANCE IC50/EC50: > 20 µM
hJAK2
  hJAK2 LANCE IC50/EC50: > 20 µM
hGSK3b
  hGSK3b LANCE IC50/EC50: > 20 µM
hFLT3
  hFLT3 LANCE IC50/EC50: > 20 µM
